Experimental data published in patent EP0369453A2, “AGE-formation inhibitory agents” (Takeda Chemical Industries, Ltd., priority 1988, dated 1990).
Marks after values point to notes of the source that are not given here.

What follows are compounds tested on advanced glycosylated end products (AGE) (assay: AGE formation inhibition: bovine serum albumin incubated with D-glucose, fluorescence measurement (method of Brownlee et al.)). Settings: Concentration of test specimen: 0.5 mM; bovine serum albumin 20%, D-glucose 100 mM, 0.5M phosphate buffer pH 7.4, 37° C for 7 days; fluorescence 370/440 nm; control = 100%.
Type: biochemical
Method: The production of advanced glycosylated end products (AGE) and its measurement were carried out in accordance with the report by Brownlee et al. [Science, 232 1629 (1986)]. Thus, bovine serum albumin (fraction V, manufactured by Wako Pure Chemical Ind. of Japan, 20%), D-glucose (100 mM) and sodium azide (3 mM) were dissolved in 0.5M phosphate buffer (pH 7.4) to prepare a reaction solution (control). A test specimen was dissolved in dimethyl sulfoxide, and the solution was added to the reaction solution to the concentrations 1 mM, 0.5 mM and 0.2 mM, respectively. These solutions were incubated at 37° C for 7 days, whereupon the solutions, before and after incubation, were diluted with phosphate buffer, followed by measurement of fluoresceces (by use of RF-510 spectrofluorimeter, manufactured by Shimadzu Seisakusho of Japan) at 370 nm of the excitation wavelength and 440 nm of the emission wavelength. The variation in fluorescence (F) was utilized to calculate the formation ratio (%) following the formula described below. In the above tests, the blind test was carried out using the reaction solution free from D-glucose. The AGE were calculated by the following equation: Formation ratio = [ F(T) - F(B)]/[ F(C) - F(B)] x 100 [formula] where F(T), F(B) and F(C) are variations in fluorescence for test specimen, blind test specimen and control, respectively.
With `Cc1ccc(C)c(C(=O)NC(=S)Nc2nc(-c3ccc4c(c3)CCCC4)cs2)c1` [Example 42] the “AGE Formation Ratio (% against the control value)” value was 35^2) %.
With `O=C(NC(=S)Nc1nc(-c2ccc3c(c2)CCCC3)cs1)c1ccc(F)cc1` [Example 26] the “AGE Formation Ratio (% against the control value)” value was 34^2) %.
For `O=C(NC(=S)Nc1nc(-c2ccc3c(c2)CCCC3)cs1)c1ccncc1` [Example 31], the “AGE Formation Ratio (% against the control value)” value was 53^2) %.
With `CCc1sc(NC(=S)NC(=O)c2ccccc2)nc1-c1ccc2c(c1)CCCC2` [Example 20] the “AGE Formation Ratio (% against the control value)” value was 0^2) %.
`O=C(NC(=S)Nc1nc(-c2ccc3c(c2)CCCC3)cs1)c1ccccc1` [Example 1, 1-benzoyl-3-[4-(5,6,7,8-tetrahydro-2-naphthyl)-2-thiazolyl] thiourea] was tested, and the “AGE Formation Ratio (% against the control value)” value was 43^2) %.
`O=C(NC(=S)Nc1nc(-c2ccc3c(c2)CCCC3)cs1)c1ccc2ccccc2c1` [Example 34] was tested, and the “AGE Formation Ratio (% against the control value)” value was 0^2) %.
In the case of `CC(C)c1sc(NC(=S)NC(=O)c2ccccc2)nc1-c1ccc2c(c1)CCCC2` [Example 21], the “AGE Formation Ratio (% against the control value)” value is reported as 19^2) %.
With `O=C(NC(=S)Nc1nc(-c2ccc3c(c2)CCCC3)cs1)c1ccc2c(c1)CCCC2` [Example 60] the “AGE Formation Ratio (% against the control value)” value was 17^2) %.
With `O=C(NC(=S)Nc1nc(-c2ccc3ccccc3c2)cs1)c1ccccc1` [Example 15] the “AGE Formation Ratio (% against the control value)” value was 46^2) %.

Same assay, conditions: Concentration of test specimen: 1 mM; bovine serum albumin 20%, D-glucose 100 mM, 0.5M phosphate buffer pH 7.4, 37° C for 7 days; fluorescence 370/440 nm; control = 100%
In the case of `O=C(NC(=S)Nc1nc(-c2ccc3c(c2)OCCO3)cs1)c1ccccc1` [Example 13], the “AGE Formation Ratio (% against the control value)” value is reported as 45^1) %.
With `Cc1ccccc1C(=O)NC(=S)Nc1nc(-c2ccc3c(c2)CCCC3)cs1` [Example 27] the “AGE Formation Ratio (% against the control value)” value was 0^1) %.
`O=C(/C=C/c1ccccc1)NC(=S)Nc1nc(-c2ccc3c(c2)CCCC3)cs1` [Example 37] was tested, and the “AGE Formation Ratio (% against the control value)” value was 49^1) %.
With `O=C(NC(=S)Nc1nc(-c2ccc3c(c2)CCCC3)cs1)c1c2ccccc2cc2ccccc12` [Example 63] the “AGE Formation Ratio (% against the control value)” value was 54^1) %.
`O=C(NC(=S)Nc1nc(-c2ccc3c(c2)CCCC3)c(-c2ccccc2)s1)c1ccccc1` [Example 22] was tested, and the “AGE Formation Ratio (% against the control value)” value was 31^1) %.
In the case of `O=C(NC(=S)Nc1nc(-c2ccc3c(c2)CCCC3)cs1)c1ccc(Cl)cc1` [Example 23, 1-(4-chlorobenzoyl)-3-[4-(5,6.7,8-tetrahydro-2-naphthyl-)2-thiazolyl]thiourea], the “AGE Formation Ratio (% against the control value)” value is reported as 51^1) %.
For `Cc1ccc(-c2csc(NC(=S)NC(=O)c3ccccc3)n2)cc1` [Example 4], the “AGE Formation Ratio (% against the control value)” value was 47^1) %.
For `CCCCC(CC)C(=O)NC(=S)Nc1nc(-c2ccc3c(c2)CCCC3)cs1` (stereo not drawn) [Example 72], the “AGE Formation Ratio (% against the control value)” value was 58^1) %.
For `COc1ccc(-c2csc(NC(=S)NC(=O)c3ccccc3)n2)cc1` [Example 11], the “AGE Formation Ratio (% against the control value)” value was 66^1) %.
`O=C(NC(=S)Nc1nc(-c2ccc(C(F)(F)F)cc2)cs1)c1ccccc1` [Example 8] was tested, and the “AGE Formation Ratio (% against the control value)” value was 58^1) %.
`O=C(NC(=S)Nc1nc(-c2ccc(Cl)cc2)cs1)c1ccccc1` [Example 10] was tested, and the “AGE Formation Ratio (% against the control value)” value was 30^1) %.
For `O=C(NC(=S)Nc1nc(-c2ccc3c(c2)CCCC3)cs1)c1ccccc1C(F)(F)F` [Example 47], the “AGE Formation Ratio (% against the control value)” value was 16^1) %.
